Measured values: US20160158179A1, “NANOEMULSION THERAPEUTIC COMPOSITIONS AND METHODS OF USING THE SAME” (THE REGENTS OF THE UNIVERSITY OF MICHIGAN, priority 2008, published 2016)
Converted amounts (≈) assume the structure as drawn.

Tests used:
Burkholderia cepacia = experiment: MIC determination, CLSI microdilution with alamar blue; type: cell-based; settings: Burkholderia cepacia (n = 5); nanoemulsions in the presence of 5 mM EDTA
Stenotrophomonas strains = experiment: Checkerboard synergy study (FIC/FBC index); type: cell-based, Stenotrophomonas maltophilia; settings: Stenotrophomonas; in combination with P4075EC+EDTA
Pseudomonas aeruginosa = experiment: MIC and MBC determination (CLSI, alamar blue), CF isolates; settings: Pseudomonas
Acinetobacter baumannii = experiment: MIC and MBC determination (CLSI, alamar blue); settings: Acinetobacter
Burkholderia cenocepacia = experiment: MIC and MBC determination (CLSI, alamar blue), CF isolates
Acinetobacter strains = experiment: Checkerboard synergy study (FIC/FBC index); type: cell-based, Acinetobacter baumannii; settings: Acinetobacter; in combination with P4075EC+EDTA
[1] = tested on: Stenotrophomonas maltophilia; experiment: MIC and MBC determination (CLSI, alamar blue), CF isolates
Burkholderia strains = experiment: Checkerboard synergy study (FIC/FBC index); type: cell-based, Burkholderia cenocepacia; settings: Burkholderia; in combination with P4075EC+EDTA
Proteus mirabilis = experiment: MIC determination, CLSI microdilution with alamar blue; type: cell-based; settings: Proteus mirabilis (n = 5); nanoemulsions in the presence of 5 mM EDTA; in µg/mL

| Compound | MIC 50 (Burkholderia cepacia) [µg/mL] | Overall synergy result (Stenotrophomonas strains) | MIC 50 (Pseudomonas aeruginosa) [µg/mL] | MIC 90 (Pseudomonas aeruginosa) [µg/mL] | MIC 50 (Acinetobacter baumannii) [µg/mL] | MIC 90 (Acinetobacter baumannii) [µg/mL] | MIC 90 (Burkholderia cenocepacia; Burkholderia) [µg/mL] | MIC 50 (Burkholderia cenocepacia; Burkholderia cenocepacia) [µg/mL] | MIC 90 (Burkholderia cenocepacia; Burkholderia cenocepacia) [µg/mL] | Overall synergy result (Acinetobacter strains) | MIC 50 ([1]; Stenotrophomonas) [µg/mL] | MIC 90 ([1]; Stenotrophomonas) [µg/mL] | MIC 50 ([1]; Stenotrophomonas maltophilia) [µg/mL] | MIC 90 ([1]; Stenotrophomonas maltophilia) [µg/mL] | Overall synergy result (Burkholderia strains) | MIC Range (Proteus mirabilis) |
| --- | --- | --- | --- | --- | --- | --- | --- | --- | --- | --- | --- | --- | --- | --- | --- | --- |
| NC[C@H]1O[C@H](O[C@H]2[C@H](O)[C@@H](O[C@H]3O[C@H](CO)[C@@H](O)[C@H](N)[C@H]3O)[C@H](N)C[C@@H]2N)[C@H](N)C[C@@H]1O [Tobramycin] | 16 | No Interference | 1 (≈ 2.14 µM) | 16 (≈ 34.2 µM) | 1 (≈ 2.14 µM) | 16 (≈ 34.2 µM) | >32 | > 32 | > 32 | No Interference | >32 | >32 | > 32 | > 32 | No Interference |  |
| Piperacillin/tazobactam |  |  |  |  |  |  |  |  |  |  |  |  |  |  |  | <=0.5-1 |
